Test results reported in patent publication US20110230481A2, “DERIVATIVES OF TETRABROMOBENZIMIDAZOLE, A PROCESS FOR THE PREPARATION THEREOF, A PHARMACEUTICAL COMPOSITION COMPRISING THE SAME, A METHOD OF USING THE SAME, A METHOD FOR MODULATING OR REGULATING SERINE/THREONINE KINASES, AND SERINE/THREONINE KINASES MODULATING AGENT” (SELVITA S.A., priority 2009, published 2011).

Tested on: panel of 440 kinases
Assay: KINOMEscan Max, whole panel
Type: binding, human
Details: 1 μM
Procedure: Kinase panel profiling was performed at Ambit Kinomescan (http://www.ambitbio.com/technology/) using the “KINOMEscan™ Max” assay platform, a high-throughput method for screening small molecule compounds against large numbers of human kinases. KINOMEscan™ is based on a competition binding assay that quantitatively measures the ability of a compound to compete with an immobilized, active-site directed ligand. The assay is performed by combining three components: DNA-tagged kinase; immobilized ligand; and a test compound. The ability of the test compound to compete with the immobilized ligand is measured via quantitative PCR of the DNA tag. For a description of Ambit's assay protocol, see Fabian et al. A small molecule-kinase interaction map for clinical kinase inhibitors. Nat. Biotechnol. 23, 329-336 (2005).
Selectivity of kinase inhibition is one of the key parameters in therapeutic use of this class of compounds. Off-target inhibition could be one of the major safety and toxicity issues in drug development and use of the compounds for treatment of various disease conditions. For this reason, development of selective kinase inhibitors is desired, to limit possible adverse effects. Therefore compounds disclosed in the application were tested on a panel of 440 kinases to determine specificity in PIM kinase inhibition. Table 5 provides selectivity data for representative compound N-(3-aminopropyl)-4,5,6,7-tetrabromo-1H-benzo[d]imidazol-2-amine (compound 11). As indicated in the Table 5 when tested at 1 μM concentration N-(3-aminopropyl)-4,5,6,7-tetrabromo-1H-benzo[d]imidazol-2-amine inhibited substrate biding of only 12 kinases (2% of the whole panel)>90%, whereas for over 93% of the tested kinases in the panel, substrate binding was basically not affected by compound 11. Pim kinases, but also HIPK, DYRK and CLK kinases and FTL3 mutants were identified as the primary targets for inhibition by compound 11 and selectivity for Pim kinases over other kinases was further confirmed in radiometric kinase assays.

## NCCCNc1nc2c(Br)c(Br)c(Br)c(Br)c2[nH]1 [Compound 11, N-(3-aminopropyl)-4,5,6,7-tetrabromo-1H-benzo[d]imidazol-2-amine]
  number of kinases with substrate binding inhibited >90%: 12
  share of tested kinases with substrate binding basically not affected: over 93%
  share of the whole panel with substrate binding inhibited >90%: 2%
